Experimental data from patent US20250154169A1, “COMPOUNDS AND METHODS FOR MODULATING SPLICING” (REMIX THERAPEUTICS INC., priority 2021, published 2025).
Counter-ions that a name gives are not always drawn. Like-named read-outs stand apart in the source and are kept apart here.

Legend:
Format in all cases: cell-based, human
Target C mRNA = assay: Splicing RT-qPCR gene panel, Target C canonical junction (CJ) mRNA; conditions: Homo sapiens, Tables 4A/4B, read-out: Target C (IC50, decrease in CJ mRNA, gene panel)
In short: (§1)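 A673 or K562 cells treated 24 h at 37° C. with an 11-point 3-fold dilution series (top 10 uM, ≤0.25% DMSO). Lysates analysed by one-step RT-qPCR for canonical exon-exon junction transcripts, normalized to GAPDH, GUSB or PPIA and DMSO control (2^(−ΔΔCt)), then converted to percentage response.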

HTT mRNA [1] = assay: Splicing RT-qPCR assay, HTT canonical (CJ) and alternative (AJ) junction mRNA; conditions: Homo sapiens, A673 or K562 cells, 24 hours compound treatment; for IC50: 24 h, read-out: HTT CJ (IC50, decrease in canonical junction mRNA); for AC50: read-out: HTT AJ (AC50, increase in alternative junction mRNA)
In short: (§2)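 Read-out is the abundance of canonical-junction versus new alternative-exon-junction mRNA, determined by real-time qPCR after cDNA synthesis and normalized to a housekeeping gene. It is measured in A673 or K562 cells exposed to compounds for 24 h, top dose 10 uM.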

MYB mRNA = assay: Splicing RT-qPCR assay, MYB canonical (CJ) and alternative (AJ) junction mRNA; conditions: Homo sapiens; for AC50: read-out: MYB AJ (AC50, increase in alternative junction mRNA)
In short: as §2

SMN2 mRNA = assay: Splicing RT-qPCR gene panel, SMN2 canonical junction (CJ) mRNA; conditions: Homo sapiens, Tables 4A/4B, read-out: SMN2 (IC50, decrease in CJ mRNA, gene panel)
In short: as §1

HTT mRNA [2] = assay: Splicing RT-qPCR gene panel, HTT canonical junction (CJ) mRNA; conditions: Homo sapiens, Tables 4A/4B, read-out: HTT (IC50, decrease in CJ mRNA, gene panel)
In short: as §1

[3] = 24 h, A673 or K562 cells, 24 hours compound treatment, RT-qPCR
[4] = 24 h, A673 or K562 cells, 24 hours compound treatment, RT-qPCR, read-out: MYB CJ (IC50, decrease in canonical junction mRNA)
[5] = Tables 4A/4B, canonical junction qPCR panel, read-out: MYB (IC50, decrease in CJ mRNA, gene panel)

Row | IC50 (Target C mRNA) [nM] | IC50 (HTT mRNA [1]) [nM] | IC50 (MYB mRNA; [4]) [nM] | IC50 (MYB mRNA; [5]) [nM] | IC50 (SMN2 mRNA) [nM] | IC50 (HTT mRNA [2]) [nM] | SMILES | AC50 (HTT mRNA [1]) [nM] | AC50 (MYB mRNA; [3]) [nM]
1 | 100 to 1000 | < 100 | < 100 | < 100 | < 100 | < 100 | COc1c(NC(=O)c2ccc(N3CCNCC3)c3cn(C)nc23)cn2cc(C)nc2c1F [Compound 343, N-{8-fluoro-7-methoxy-2-methylimidazo[1,2-a]pyridin-6-yl}-2-methyl-4-(piperazin-1-yl) indazole-7-carboxamide] | < 100 | < 100
2 | > 10000 | > 10000 | 1000 to 10000 | 1000 to 10000 | 100 to 1000 | > 10000 | COc1c(NC(=O)c2ccc(N3CCNCC3)c3cn(C)nc23)cc2cn(C)nc2c1C [Compound 344, N-(6-methoxy-2,7-dimethylindazol-5-yl)-2-methyl-4-(piperazin-1-yl) indazole-7-carboxamide trifluoroacetate] | > 10000 | 1000 to 10000
3 | 1000 to 10000 | 1000 to 10000 | < 100 | < 100 | < 100 | 1000 to 10000 | Cc1cn2cc(NC(=O)c3ccc(N4CCC(NCc5ccccn5)CC4)c4cn(C)nc34)cc(F)c2n1 [Compound 347, N-{8-fluoro-2-methylimidazo[1,2-a]pyridin-6-yl}-2-methyl-4-{4-[(pyridin-2-ylmethyl)amino]piperidin-1-yl}indazole-7-carboxamide] | 1000 to 10000 | < 100
4 | 1000 to 10000 | 1000 to 10000 | < 100 | < 100 | < 100 | 1000 to 10000 | Cc1cn2cc(NC(=O)c3ccc(N4CCC5(CC4)CNC5)c4cn(C)nc34)cc(F)c2n1 [Compound 348, 4-{2,7-diazaspiro[3.5]nonan-7-yl}-N-{8-fluoro-2-methylimidazo[1,2-a]pyridin-6-yl}-2-methylindazole-7-carboxamide] | 1000 to 10000 | < 100
5 | 100 to 1000 | 100 to 1000 | < 100 | < 100 | < 100 | 100 to 1000 | Cc1cn2cc(NC(=O)c3ccc(N4CCC5(CCCN5)CC4)c4cn(C)nc34)cc(F)c2n1 [Compound 349, 4-{1,8-diazaspiro[4.5]decan-8-yl}-N-{8-fluoro-2-methylimidazo[1,2-a]pyridin-6-yl}-2-methylindazole-7-carboxamide] | 100 to 1000 | < 100
6 | > 10000 | > 10000 | 1000 to 10000 | 1000 to 10000 | 100 to 1000 | > 10000 | Cc1cn2cc(NC(=O)c3ccc(N4CCNCC4)c4cn(CC(C)(C)O)nc34)cc(F)c2n1 [Compound 354, N-{8-fluoro-2-methylimidazo[1,2-a]pyridin-6-yl}-2-(2-hydroxy-2-methylpropyl)-4-(piperazin-1-yl)indazole-7-carboxamide] | > 10000 | 1000 to 10000
7 | > 10000 | > 10000 | < 100 | < 100 | < 100 | > 10000 | Cc1cn2cc(NC(=O)c3ccc(N4CCNCC4)c4cn(C5CC(O)C5)nc34)cc(F)c2n1 (stereo not shown) [Compound 355, N-{8-fluoro-2-methylimidazo[1,2-a]pyridin-6-yl}-2-(3-hydroxycyclobutyl)-4-(piperazin-1-yl)indazole-7-carboxamide] | 1000 to 10000 | < 100
8 | > 10000 | > 10000 | 100 to 1000 | 100 to 1000 | < 100 | > 10000 | Cc1cn2cc(NC(=O)c3ccc(N4CCNCC4)c4cn(C5CCOC5)nc34)cc(F)c2n1 (stereo not shown) [Compound 356, N-{8-fluoro-2-methylimidazo[1,2-a]pyridin-6-yl}-2-(oxolan-3-yl)-4-(piperazin-1-yl)indazole-7-carboxamide] | > 10000 | 100 to 1000
9 | > 10000 | 1000 to 10000 | 100 to 1000 | 100 to 1000 | < 100 | 1000 to 10000 | Cc1cn2cc(NC(=O)c3ccc(N4CCNCC4)c4cn(CC5(O)CC5)nc34)cc(F)c2n1 [Compound 358, N-{8-fluoro-2-methylimidazo[1,2-a]pyridin-6-yl}-2-[(1-hydroxycyclopropyl)methyl]-4-(piperazin-1-yl)indazole-7-carboxamide] | > 10000 | 100 to 1000
10 | > 10000 | > 10000 | 1000 to 10000 | 1000 to 10000 | 100 to 1000 | > 10000 | CNc1cc(N2CCNCC2)c2cn(C)nc2c1C(=O)Nc1cc(F)c2nc(C)cn2c1 [Compound 362, N-{8-fluoro-2-methylimidazo[1,2-a]pyridin-6-yl}-2-methyl-6-(methylamino)-4-(piperazin-1-yl) indazole-7-carboxamide] | > 10000 | 1000 to 10000
11 | > 10000 | 1000 to 10000 | 1000 to 10000 | 1000 to 10000 | < 100 | 1000 to 10000 | Cc1cn2cc(NC(=O)c3ccc(N4CCNCC4)c4cn(CC(C)(F)F)nc34)cc(F)c2n1 [Compound 364, 2-(2,2-difluoropropyl)-N-{8-fluoro-2-methylimidazo[1,2-a]pyridin-6-yl}-4-(piperazin-1-yl) indazole-7-carboxamide; trifluoroacetic acid] | > 10000 | 100 to 1000
12 | > 10000 | 1000 to 10000 | < 100 | < 100 | < 100 | 1000 to 10000 | Cc1cn2cc(NC(=O)c3ccc(N4CCNCC4)c4cn(Cc5cnco5)nc34)cc(F)c2n1 [Compound 366, N-{8-fluoro-2-methylimidazo[1,2-a]pyridin-6-yl}-2-(1,3-oxazol-5-ylmethyl)-4-(piperazin-1-yl) indazole-7-carboxamide] | 1000 to 10000 | < 100
13 | > 10000 | 1000 to 10000 | 100 to 1000 | 100 to 1000 | < 100 | 1000 to 10000 | COC(C)Cn1cc2c(N3CCNCC3)ccc(C(=O)Nc3cc(F)c4nc(C)cn4c3)c2n1 (stereo not shown) [Compound 367, N-{8-fluoro-2-methylimidazo[1,2-a]pyridin-6-yl}-2-(2-methoxypropyl)-4-(piperazin-1-yl) indazole-7-carboxamide; trifluoroacetic acid] | 1000 to 10000 | 100 to 1000
14 | > 10000 | > 10000 | 100 to 1000 | 100 to 1000 | < 100 | > 10000 | Cc1cn2cc(NC(=O)c3ccc(N4CCNCC4)c4cn(Cc5cn(C)nn5)nc34)cc(F)c2n1 [Compound 368, N-{8-fluoro-2-methylimidazo[1,2-a]pyridin-6-yl}-2-[(1-methyl-1,2,3-triazol-4-yl)methyl]-4-(piperazin-1-yl) indazole-7-carboxamide; trifluoroacetic acid] | > 10000 | 100 to 1000
15 | 1000 to 10000 | 100 to 1000 | < 100 | < 100 | < 100 | 100 to 1000 | Cc1cn2cc(NC(=O)c3ccc(N4CCC(NCCO)CC4)c4cn(C)nc34)cc(F)c2n1 [Compound 369, N-{8-fluoro-2-methylimidazo[1,2-a]pyridin-6-yl}-4-{4-[(2-hydroxyethyl)amino]piperidin-1-yl}-2-methylindazole-7-carboxamide] | 100 to 1000 | < 100
16 | > 10000 | > 10000 | 100 to 1000 | 100 to 1000 | 100 to 1000 | > 10000 | Cc1cn2cc(NC(=O)c3ccc(N4CCC(N)(C(F)(F)F)CC4)c4cn(C)nc34)cc(F)c2n1 [Compound 370, 4-[4-amino-4-(trifluoromethyl)piperidin-1-yl]-N-{8-fluoro-2-methylimidazo[1,2-a]pyridin-6-yl}-2-methylindazole-7-carboxamide] | > 10000 | 1000 to 10000
17 | > 10000 | 100 to 1000 | < 100 | < 100 | < 100 | > 10000 | Cc1cn2cc(NC(=O)c3ccc(N4CC[C@@H](NC5CC5)C4)c4cn(C)nc34)cc(F)c2n1 [Compound 371, 4-[(3R)-3-(cyclopropylamino)pyrrolidin-1-yl]-N-{8-fluoro-2-methylimidazo[1,2-a]pyridin-6-yl}-2-methylindazole-7-carboxamide] | 100 to 1000 | < 100
